Test results taken from patent US9448226B2, “Method of toxicological evaluation, method of toxicological screening and associated system” (Universite Technologie De Compiegne—UTC, priority 2010, dated 2016).

Columns and labels:
HEPG2/C3A cells = experiment: Metabolic response of C3A bioartificial liver in bioreactor to xenobiotic (1H NMR, PLS regression); assay type: cell-based, human; design: key: +: sign of the variation of its concentration (in brackets) when the amount of xenobiotic in the experiment increases; −: sign of the variation of its concentration (in brackets) when the amount of xenobiotic in the experiment increases
From the text: (§1) In the preferred embodiment described, ^1H NMR spectroscopy (proton NMR, which makes it possible to detect hydrogen atoms) was used to carry out a series of tests. These tests involved two cell lines and three potentially toxic substances, with the two lines being optionally in coculture. These cells are in one case HEPG2/C3A cells, or simply C3A, human hepatocyte cells, and in the other case Madin-Darby canine kidney (MDCK) cells. […] In particular, mention may be made of the pancreas, the heart, the testicles, parts of the brain, etc.
(§2) The medium samples are, for example, prepared using 350 μl of medium, mixed with 200 μl of 0.9 g/l saline solution composed of 90% water (H2O) and 10% heavy water (D2O), for the purpose of calibration. The 550 μl of solution is then transferred to an NMR analysis tube.
(§3) NMR is acquired at a frequency of 700 MHz by using a proton probe. A ^1D NMR spectrum is recorded using presaturation of the resonance of the water according to the following sequence: Trd-P90-t1-P90-tm-P90-Taq. Trd represents a delay of 2 seconds during which the resonance of the water is selectively irradiated, P90 is a 90° pulse of radio frequency and t1 corresponds to a delay of 3 μs. The resonance of the water is irradiated a second time during the mixing time (tm=100 ms) and an acquisition time of 1.95 s. For each sample, 128 interferograms are accumulated in order to increase the signal-to-noise ratio. These interferograms are multiplied by an exponential function corresponding to a 0.3 Hz enlarging of the line. Before obtaining a Fourier transform, the width of the interferogram is doubled by adding null points at the end of the interferogram, in order not to degrade the resolution of the spectrum. The scale in the horizontal dimension corresponds to the ^1H chemical shifts. It extends over a window of 10 ppm around the resonance of water. The scale in the vertical dimension corresponds to resonance intensity which is proportional to the number of protons present for a chemical group of each molecule of the sample. The spectra are then phased and a linear correction of the baseline is carried out, before calibration on the signal of the […] anomer of glucose at 5.23 ppm. The area between 4.67 ppm and 5 ppm around the residual signal of water is suppressed for better visibility, and the spectra are exported as a multidimensional data set.
(§4) The statistical analysis consists first of an unsupervised principal components analysis in order to locate aberrant points in the multidimensional data set. The principal components analysis makes it possible to compress the 40,000 redundant NMR present in the data set in a new orthonormal reference, with each axis representing a principal component of the variance of the data set, which is thus multidimensional. A so-called supervised multivariate statistical analysis is then carried out in order to discriminate culture conditions or groups of doses and to identify the metabolic signatures specific to the toxicological effects. This supervised analysis is principally carried out using partial least squares regression, through partial least squares discriminant analysis (PLS-DA), without however being limited to it. A PLS regression, just like a linear regression, makes it possible to identify the components of the data set (explanatory variables, X) that are quantitatively correlated with the non-explanatory variable (Y), whether the culture conditions, the cell type of the bioartificial organ, the type of treatment administered or the treatment dose. Artificial neural network structures can also be programmed to carry out this multivariate analysis.
(§5) Third, the metabolic responses of the various organs to various exposures to NH3 were studied. Three amounts of NH3 were administered (0 mM, 5 mM and 10 mM) to each type of bioartificial organ.

C3A/MDCK coculture = conditions: NH3 0 mM, 5 mM and 10 mM
From the text: as §1, §2, §3, §4, §5

[1] = tested on: Madin-Darby canine kidney (MDCK) cells; conditions: Bioartificial kidney (MDCK cells); NH3 0 mM, 5 mM and 10 mM
From the text: as §1, §2, §3, §4, §5

C3A cells = experiment: Metabolic response of C3A cell culture in Petri dishes to APAP (1H NMR, PLS regression); assay type: cell-based, human; design: key: +: sign of the variation of its concentration (in brackets) when the amount of xenobiotic in the experiment increases; −: sign of the variation of its concentration (in brackets) when the amount of xenobiotic in the experiment increases; conditions: amount of xenobiotic increases
Procedure: Fourth, the specific metabolic responses of bioartificial livers exposed to various toxins were characterized (Table 4). Several toxic substances (NH3 ([…]); DMSO (0%, 1%, 2%, 4%); APAP (0.1 mM)) were administered to bioartificial livers comprised of C3A cells. In the case of treatment with APAP, the response of the bioartificial liver was compared with that of liver cells in culture in Petri dishes. […] The result is four PLS models specific to each treatment type: NH3 on C3A bioartificial liver, DMSO on C3A bioartificial liver, APAP on C3A bioartificial liver and, finally, APAP on C3A cell culture in Petri dishes. […] This table presents for each metabolite the sign of the variation of its concentration (in brackets) when the amount of xenobiotic in the experiment increases.

[2] = C3A bioartificial liver, amount of xenobiotic increases (Table 4)
[3] = Bioartificial liver (C3A cells), NH3 0 mM, 5 mM and 10 mM

C[S+](C)[O-] [DMSO, dimethyl sulfoxide]
Variation of Alpha-keto-isovalerate concentration (HEPG2/C3A cells; [2]): isovalerate (−) | Variation of Alpha-keto-methylvalerate concentration (HEPG2/C3A cells; [2]): methylvalerate (−) | Variation of Glucose concentration (HEPG2/C3A cells; [2]): Glucose (+) | Variation of Lactate concentration (HEPG2/C3A cells; [2]): Lactate (−) | Variation of Phenylalanine concentration (HEPG2/C3A cells; [2]): Phenylalanine (+) | Variation of Tyrosine concentration (HEPG2/C3A cells; [2]): Tyrosine (+)

N [NH3, ammonia]
Variation of Alanine concentration (HEPG2/C3A cells; [3]): + | Variation of Alpha-keto-isovalerate concentration (HEPG2/C3A cells; [3]): − | Variation of Alpha-keto-methylvalerate concentration (HEPG2/C3A cells; [3]): − | Variation of Isoleucine concentration (HEPG2/C3A cells; [3]): + | Variation of Leucine concentration (HEPG2/C3A cells; [3]): + | Variation of Succinate concentration (HEPG2/C3A cells; [3]): + | Variation of Valine concentration (HEPG2/C3A cells; [3]): + | Variation of Alanine concentration (HEPG2/C3A cells; [2]): Alanine (+) | Variation of Alpha-keto-isovalerate concentration (HEPG2/C3A cells; [2]): isovalerate (−) | Variation of Alpha-keto-methylvalerate concentration (HEPG2/C3A cells; [2]): methylvalerate (−) | Variation of Isoleucine concentration (HEPG2/C3A cells; [2]): Isoleucine (+) | Variation of Leucine concentration (HEPG2/C3A cells; [2]): Leucine (+) | Variation of Succinate concentration (HEPG2/C3A cells; [2]): Succinate (+) | Variation of Valine concentration (HEPG2/C3A cells; [2]): Valine (+) | Variation of Alpha-hydroxyisobutyrate concentration (C3A/MDCK coculture): + | Variation of Glutamate concentration (C3A/MDCK coculture): + | Variation of Glutamine concentration (C3A/MDCK coculture): + | Variation of Lysine concentration (C3A/MDCK coculture): + | Variation of Ornithine concentration (C3A/MDCK coculture): − | Variation of Succinate concentration (C3A/MDCK coculture): + | Variation of Valine concentration (C3A/MDCK coculture): + | Variation of Glutamine concentration [1]: − | Variation of Lysine concentration [1]: − | Variation of Oxaloacetate concentration [1]: − | Variation of Pyroglutamate concentration [1]: + | Variation of Pyruvate concentration [1]: − | Variation of Unknown metabolite concentration [1]: −

CC(=O)Nc1ccc(O)cc1 [APAP, N-acetyl-para-aminophenol]
Variation of Acetate concentration (HEPG2/C3A cells; [2]): Acetate (+) | Variation of Isoleucine concentration (HEPG2/C3A cells; [2]): Isoleucine (−) | Variation of Pyruvate/oxaloacetate concentration (HEPG2/C3A cells; [2]): oxaloacetate (−) | Variation of Succinate concentration (HEPG2/C3A cells; [2]): Succinate (−) | Variation of Tyrosine concentration (HEPG2/C3A cells; [2]): Tyrosine (+) | Variation of Unknown metabolite concentration (HEPG2/C3A cells; [2]): Unknown (−) | Variation of Arginine concentration (C3A cells): Arginine (−) | Variation of Ethanol concentration (C3A cells): Ethanol (−) | Variation of Glutamate concentration (C3A cells): Glutamate (−) | Variation of Isoleucine concentration (C3A cells): Isoleucine (−) | Variation of Leucine concentration (C3A cells): Leucine (−) | Variation of Lysine concentration (C3A cells): Lysine (−) | Variation of Phenylalanine concentration (C3A cells): Phenylalanine (−)
